Measured values: patent US20250145589A1, “PYRIDINE DERIVATIVE AND USE THEREOF” (SICHUAN HUIYU PHARMACEUTICAL CO., LTD., priority 2021, published 2025)

Key:
[1] = molecular target: PI3Kα (Homo sapiens (Human), UniProt P42336); test: Inhibition of PI3Kα efficacy assay (ADP-Glo kinase assay); type: biochemical; conditions: Table 4; read-out: PI3Kα inhibitory activity (IC50)
Outline: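 Eight five-fold dilutions of compound (2 mM DMSO stock) tested; kinase reaction with PI and ATP ran 60 min at RT, followed by ADP-Glo and detection reagent steps of 40 min each. Four-parameter logistic fitting gave IC50 values.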

[2] = test system: NCI-H358 cells (KRAS G12C mutant); test: NCI-H358 cell proliferation inhibition (CellTiter-Glo); type: cell-based; conditions: Homo sapiens, NCI-H358, 72 h; H358 cells (G12C mutation), 3 days, Table 6; read-out: NCI-H358 (IC50)
[3] = test system: MIA PaCa-2 cells (KRAS G12C mutant); test: MIA PaCa-2 cell anti-proliferation (CellTiter-Glo); type: cell-based; conditions: Homo sapiens, 72 h; MIA Paca-2 cells, 3 days, Table 7; read-out: MIA PaCa-2 (IC50)
Protocol: The number of viable cells was determined using the CellTiter-Glo® assay to evaluate the anti-proliferation efficacy of compounds. […] The compounds were serially diluted 4-fold in DMSO to obtain 9 concentrations, and then further diluted with DMEM (10% FBS+2.5% horse serum+1% penicillin/streptomycin) cell culture medium to obtain the working solutions (2×), 15 μL of each working solution was added to the cell culture supernatant in each well, and the cells were further incubated for 3 days at 37° C. with 5% CO2. The plate was then equilibrated with CellTiter-Glo® reagent at room temperature (25° C.) for 30 minutes. After adding 25 μL of CellTiter-Glo®, reagent, the cells were thoroughly mixed with the CellTiter-Glo® reagent using a microplate shaker for 2 minutes, and then incubated at room temperature for at least 30 minutes. […] Data were analyzed using GraphPad Prism for IC50 values (Note: The negative control refers to the group without inhibitor).

PI3Kα, sequence (P42336 whole entry): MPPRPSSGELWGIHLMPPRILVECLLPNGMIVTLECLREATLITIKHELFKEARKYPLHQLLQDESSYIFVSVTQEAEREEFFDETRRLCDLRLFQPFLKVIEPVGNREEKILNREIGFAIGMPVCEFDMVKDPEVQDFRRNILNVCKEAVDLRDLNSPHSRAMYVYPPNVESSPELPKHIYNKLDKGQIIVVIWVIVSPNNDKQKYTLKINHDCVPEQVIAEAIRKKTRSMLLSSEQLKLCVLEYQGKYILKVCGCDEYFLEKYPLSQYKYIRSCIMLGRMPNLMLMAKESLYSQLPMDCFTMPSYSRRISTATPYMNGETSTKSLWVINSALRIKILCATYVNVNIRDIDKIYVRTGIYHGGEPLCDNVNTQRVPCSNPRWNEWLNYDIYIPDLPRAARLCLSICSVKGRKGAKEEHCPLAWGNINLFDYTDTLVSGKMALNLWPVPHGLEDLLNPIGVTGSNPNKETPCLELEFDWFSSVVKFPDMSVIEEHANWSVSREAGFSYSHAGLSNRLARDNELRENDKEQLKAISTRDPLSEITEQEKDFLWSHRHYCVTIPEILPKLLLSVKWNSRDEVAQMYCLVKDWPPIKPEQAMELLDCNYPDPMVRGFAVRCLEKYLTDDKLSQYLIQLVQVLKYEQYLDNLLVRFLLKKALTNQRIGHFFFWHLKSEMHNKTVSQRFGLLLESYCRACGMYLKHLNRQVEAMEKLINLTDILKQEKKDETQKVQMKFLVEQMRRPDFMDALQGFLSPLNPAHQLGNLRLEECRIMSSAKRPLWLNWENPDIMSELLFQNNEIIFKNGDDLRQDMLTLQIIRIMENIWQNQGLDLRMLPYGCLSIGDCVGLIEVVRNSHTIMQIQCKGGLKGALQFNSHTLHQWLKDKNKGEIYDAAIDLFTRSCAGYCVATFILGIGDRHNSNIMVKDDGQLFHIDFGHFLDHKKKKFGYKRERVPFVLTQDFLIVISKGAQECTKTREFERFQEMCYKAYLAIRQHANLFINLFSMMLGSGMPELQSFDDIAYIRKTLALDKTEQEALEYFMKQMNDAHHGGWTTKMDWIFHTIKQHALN
PI3Kα, sequence (P27986 whole entry partner): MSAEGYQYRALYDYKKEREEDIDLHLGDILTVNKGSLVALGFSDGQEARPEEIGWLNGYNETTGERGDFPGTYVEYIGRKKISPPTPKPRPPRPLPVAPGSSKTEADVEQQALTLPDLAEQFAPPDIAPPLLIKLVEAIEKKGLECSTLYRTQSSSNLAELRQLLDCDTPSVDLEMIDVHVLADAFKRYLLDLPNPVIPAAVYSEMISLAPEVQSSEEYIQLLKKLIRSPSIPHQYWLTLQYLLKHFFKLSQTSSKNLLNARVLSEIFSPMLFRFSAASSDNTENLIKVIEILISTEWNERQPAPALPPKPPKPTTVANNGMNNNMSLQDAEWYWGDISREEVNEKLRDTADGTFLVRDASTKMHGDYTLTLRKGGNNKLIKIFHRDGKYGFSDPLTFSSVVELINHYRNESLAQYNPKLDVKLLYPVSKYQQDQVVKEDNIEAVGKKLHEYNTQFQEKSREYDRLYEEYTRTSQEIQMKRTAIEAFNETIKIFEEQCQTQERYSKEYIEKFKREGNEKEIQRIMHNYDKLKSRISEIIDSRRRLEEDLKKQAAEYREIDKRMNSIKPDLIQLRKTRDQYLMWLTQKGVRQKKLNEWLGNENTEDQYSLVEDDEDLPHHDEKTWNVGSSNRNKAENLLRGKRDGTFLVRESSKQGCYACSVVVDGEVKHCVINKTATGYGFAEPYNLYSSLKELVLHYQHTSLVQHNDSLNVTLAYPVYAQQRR

Row | Structure (SMILES) | IC50 [1] [nM] | IC50 [2] [nM] | IC50 [3] [nM]
1 | CC(=O)/C=C/C(=O)N1CCN(c2ncnc3ccc(-c4cnc(C)c(NS(=O)(=O)c5ccc(F)cc5F)c4)cc23)CC1 [Example 188, (E)-2,4-difluoro-N-(2-methyl-5-(4-(4-(4-oxopent-2-enoyl)piperazin-1-yl)quinazolin-6-yl)pyridin-3-yl)benzene-sulfonamide] | 3.3 | 530 | 865
2 | CC(=O)/C=C/C(=O)N1CCN(c2ncnc3ccc(-c4cnc(C(F)(F)F)c(NS(=O)(=O)c5ccc(F)cc5F)c4)cc23)CC1 [Example 192, (E)-2,4-difluoro-N-(5-(4-(4-(4-oxopent-2-enoyl)piperazin-1-yl)quinazolin-6-yl)-2-(tri-fluoromethyl)pyridin-3-yl) benzene-sulfonamide] | 9.3 | 782 | 827
3 | CC(=O)/C=C/C(=O)N1CCN(c2ncnc3ccc(-c4cnc(OC(F)(F)F)c(NS(=O)(=O)c5ccc(F)cc5F)c4)cc23)CC1 [Example 194, (E)-2,4-difluoro-N-(5-(4-(4-(4-oxopent-2-enoyl)piperazin-1-yl)quinazolin-6-yl)-2-(trifluoromethoxy)pyridin-3-yl)benzenesulfonamide] | 2.8 | 728 | 782
4 | COc1ncc(-c2cc(F)c3ncnc(N4CCN(C(=O)/C=C/C(C)=O)CC4)c3c2)cc1NS(=O)(=O)c1ccc(F)cc1F [Example 196, (E)-2,4-difluoro-N-(5-(8-fluoro-4-(4-(4-oxopent-2-enoyl)piperazin-1-yl)quinazoline-6-yl)-2-methoxypyridin-3-yl)benzenesulfonamide] | 1.7 | 186 | 155
5 | CC(=O)/C=C/C(=O)N1CCN(c2ncnc3ccc(-c4cnc(OC(F)F)c(NS(=O)(=O)c5ccc(F)cc5F)c4)cc23)CC1 [Example 208, (E)-N-(2-(difluoromethoxy)-5-(4-(4-(4-oxopent-2-enoyl)piperazin-1-yl)quinazoline-6-yl)pyridin-3-yl)-2,4-difluorobenzenesulfonamide] | 30.6 | 1060 | 1040
6 | C=C(F)C(=O)N1CCN(c2ncnc3ccc(-c4cnc(OC)c(NS(=O)(=O)c5c(F)cccc5F)c4)nc23)CC1 [Example 211, 2,6-difluoro-N-(5-(4-(4-(2-fluoroacryloyl)piperazin-1-yl)pyrido[3,2-d]pyrimidin-6-yl)-2-methoxy-pyridin-3-yl)benzene-sulfonamide] | 1.7 | 12.8 | 10.4
7 | CCC(=O)/C=C/C(=O)N1CCN(c2ncnc3ccc(-c4cnc(OC)c(NS(=O)(=O)c5c(F)cccc5F)c4)nc23)CC1 [Example 212, (E)-2,6-difluoro-N-(2-methoxy-5-(4-(4-(4-oxohex-2-enoyl)piperazin-1-yl)pyrido[3,2-d]pyrimidin-6-yl)pyridin-3-yl) benzene-sulfonamide] | 3.8 | 15.2 | 14
8 | C=CC(=O)N1CCN(c2ncnc3ccc(-c4cnc(OC)c(NS(=O)(=O)c5c(F)cccc5F)c4)nc23)CC1 [Example 214, N-(5-(4-(4-acryloyl-piperazin-1-yl)pyrido[3,2-d]pyrimidin-6-yl)-2-methoxy-pyridin-3-yl)-2,6-difluoro-benzene-sulfonamide] | 2.1 | 12.6 | 6.3
9 | COC/C=C/C(=O)N1CCN(c2ncnc3ccc(-c4cnc(OC)c(NS(=O)(=O)c5c(F)cccc5F)c4)nc23)CC1 [Example 215, (E)-2,6-difluoro-N-(2-methoxy-5-(4-(4-(4-methoxybut-2-enoyl)piperazin-1-yl)pyridino [3,2-d]pyrimidin-6-yl)pyridin-3-yl) benzene-sulfonamide] | 2.4 | 10 | 6.3
10 | COc1ncc(-c2ccc3ncnc(N4CCN(C(=O)/C=C/C(F)(F)F)CC4)c3n2)cc1NS(=O)(=O)c1c(F)cccc1F [Example 216, (E)-2,6-difluoro-N-(2-methoxy-5-(4-(4-(4,4,4-trifluorobut-2-enoyl)piperazin-1-yl)pyridino [3,2-d]pyrimidin-6-yl)pyridin-3-yl)benzene-sulfonamide] | 1 | 56 | 47.7
11 | COc1ncc(-c2ccc3ncnc(N4CCN(C(=O)/C=C/C(C)=O)CC4)c3n2)cc1NS(=O)(=O)c1ccc(C(F)(F)F)cc1F [Example 221, (E)-2-fluoro-N-(2-methoxy-5-(4-(4-(4-oxopent-2-enoyl)piperazin-1-yl)pyrido[3,2-d]pyrimidin-6-yl)pyridin-3-yl)-4-(trifluoro-methyl)benzene-sulfonamide] | 2.2 | 42.9 | 60
12 | CCOc1ncc(-c2ccc3ncnc(N4CCN(C(=O)/C=C/C(C)=O)CC4)c3n2)cc1NS(=O)(=O)c1ccccc1F [Example 227, (E)-N-(2-ethoxy-5-(4-(4-(4-oxopent-2-enoyl)piperazin-1-yl)pyrido[3,2-d]pyrimidin-6-yl)pyridin-3-yl)-2-fluorobenzene-sulfonamide] | 2.4 | 83.5 | 76.2

More lines, in order of falling IC50 [1], values ahead:

Row | IC50 [1] [nM] | IC50 [2] [nM] | IC50 [3] [nM] | Structure (SMILES)
13 | 9.8 | 14.3 | 16.4 | COc1ncc(-c2ccc3ncnc(N4CCN(C(=O)/C=C/CF)CC4)c3n2)cc1NS(=O)(=O)c1c(F)cccc1F [Example 213, (E)-2,6-difluoro-N-(5-(4-(4-(4-fluorobut-2-enoyl)piperazin-1-yl)pyrido[3,2-d]pyrimidine-6-yl)-2-methoxy-pyridin-3-yl) benzene-sulfonamide]
14 | 9.5 | 112 | 108 | CCOc1ncc(-c2ccc3ncnc(N4CCN(C(=O)/C=C/C(C)=O)CC4)c3c2)cc1NS(=O)(=O)c1ccccc1F [Example 190, (E)-N-(2-ethoxy-5-(4-(4-(4-oxopent-2-enoyl)piperazin-1-yl)quinazolin-6-yl)pyridin-3-yl)-2-fluoro-benzene-sulfonamide]
15 | 5.2 | 58.6 | 71.6 | COc1ncc(-c2ccc3ncnc(C4=CCN(C(=O)/C=C/C(C)=O)CC4)c3n2)cc1NS(=O)(=O)c1sc(C)nc1C [Example 237, (E)-N-(2-methoxy-5-(4-(1-(4-oxopent-2-enoyl)-1,2,3,6-tetrahydropyridin-4-yl)pyrido[3,2-d]pyrimidin-6-yl)pyridin-3-yl)-2,4-dimethylthiazole-5-sulfonamide]
16 | 3.1 | 65.8 | 79.5 | COc1ncc(-c2ccc3ncnc(C4=CCN(C(=O)/C=C/C(C)=O)CC4)c3n2)cc1NS(=O)(=O)c1ccccc1F [Example 238, (E)-2-fluoro-N-(2-methoxy-5-(4-(1-(4-oxopent-2-enoyl)-1,2,3,6-tetrahydropyridin-4-yl)pyrido[3,2-d]pyrimidin-6-yl)pyridin-3-yl)benzenesulfonamide]
17 | 0.65 | 228 | 202 | CSc1ncc(-c2ccc3ncnc(N4CCN(C(=O)/C=C/C(C)=O)CC4)c3c2)cc1NS(=O)(=O)c1ccc(F)cc1F [Example 182, (E)-2,4-difluoro-N-(2-(methylthio)-5-(4-(4-(4-oxopent-2-enoyl)piperazin-1-yl)quinazolin-6-yl)pyridin-3-yl)benzene-sulfonamide]
